Source: ChEMBL document CHEMBL1135919, “Synthesis of photoreactive phosphatidic acid analogues displaying activatory properties on cyclic AMP-phosphodiesterases. Photoaffinity labeling of an isoform of phosphodiesterase” (J Med Chem, 2002)
pEC50: −log10 of the molar value.

These compounds were tested against T1, 3',5'-cyclic-AMP phosphodiesterase 4D (Rattus norvegicus, UniProt P14270) (assay: Activation of PDE4D3 (phosphodiesterase).).
T1 sequence (P14270 whole entry): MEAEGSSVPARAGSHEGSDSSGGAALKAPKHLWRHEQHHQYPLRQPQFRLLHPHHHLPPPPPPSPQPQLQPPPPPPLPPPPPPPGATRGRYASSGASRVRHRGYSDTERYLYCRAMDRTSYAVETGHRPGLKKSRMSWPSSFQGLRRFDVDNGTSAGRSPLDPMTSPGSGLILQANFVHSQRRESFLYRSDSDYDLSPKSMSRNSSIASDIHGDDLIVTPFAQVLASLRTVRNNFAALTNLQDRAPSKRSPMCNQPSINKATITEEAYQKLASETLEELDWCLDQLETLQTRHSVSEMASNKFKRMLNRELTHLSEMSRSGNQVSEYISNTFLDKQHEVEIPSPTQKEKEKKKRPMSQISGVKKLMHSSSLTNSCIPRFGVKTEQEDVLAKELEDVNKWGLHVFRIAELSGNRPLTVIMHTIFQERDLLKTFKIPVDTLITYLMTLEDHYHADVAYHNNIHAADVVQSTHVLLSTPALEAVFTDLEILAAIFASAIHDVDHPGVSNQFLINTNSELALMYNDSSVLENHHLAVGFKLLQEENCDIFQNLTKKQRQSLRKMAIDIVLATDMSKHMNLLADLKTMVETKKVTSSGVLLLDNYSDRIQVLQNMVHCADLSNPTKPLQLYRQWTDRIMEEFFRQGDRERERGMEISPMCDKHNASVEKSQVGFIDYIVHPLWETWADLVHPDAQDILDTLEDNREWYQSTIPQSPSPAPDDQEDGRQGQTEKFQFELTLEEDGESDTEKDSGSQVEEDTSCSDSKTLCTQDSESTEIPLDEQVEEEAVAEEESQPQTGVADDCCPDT
Assay type: functional

Row | Compound | pEC50
1 | CCCCCCCC/C=C/CCCCCCCC(=O)OCC(COP(=O)(O)O)OC(=O)CCCCCCCCCCCNC(=O)c1c(F)c(F)c(N=[N+]=[N-])c(F)c1F (stereo not drawn) | 4.63
2 | CCCCCCCCCCCCCCCC(=O)OCC(COP(=O)(O)O)OC(=O)CCCCCCCCCCCNC(=O)c1c(F)c(F)c(N=[N+]=[N-])c(F)c1F (stereo not drawn) | 4.62
3 | CCCCCCCC/C=C/CCCCCCCC(=O)OC(COC(=O)CCCCCCCCCCCNC(=O)c1c(F)c(F)c(N=[N+]=[N-])c(F)c1F)COP(=O)(O)O (stereo not drawn) | 4.63
